# In patent US5455222A, “1-substituted-5-thiomethylthiocyanato-1H-tetrazoles, compositions containing them and their use as antimicrobial and marine antifouling agents” (The Dow Chemical Company, priority 1994, dated 1995):
# Assays:
# [1] = tested on: Trichoderma viride (Tv); experiment: Minimum inhibitory concentration (MIC), yeast/fungi in malt yeast agar; format: cell-based, Trichoderma viride ATCC 8678; details: 30° C., 72 hours for fungi
# Protocol: (§1) The minimum inhibitory concentration (MIC) for the compounds listed in Table I is determined for 9 bacteria, using nutrient agar, and 7 yeast and fungi, using malt yeast agar. A one percent solution of the test compound is prepared in a mixture of acetone and water.
# (§2) Malt yeast agar is prepared by adding 3 g yeast extract and 45 g malt agar per liter of deionized water. The specific agar is dispensed in 30 mL aliquots into 25×200 mm test tubes, capped and autoclaved for 15 minutes at 115° C.
# (§3) The test tubes containing the agar are cooled in a water bath until the temperature of the agar is 48° C. Then, an appropriate amount of the one percent solution of the test compound is added (except in the controls where no compound is added) to the respective test tubes so that the final concentrations are 500, 250, 100, 50, 25, 10, 5, 2.5, 1.0 and zero parts per million of the test compound in the agar, thus having a known concentration of test compound dispersed therein. The contents of the test tubes are then transferred to respective petri plates. After drying for 24 hours, the petri plates containing nutrient agar are inoculated with bacteria and those containing malt yeast agar are inoculated with yeast and fungi.
# (§4) The inoculation with the yeast and fungi is accomplished as follows. Cultures of yeast and fungi are incubated for seven days on malt yeast agar at 30° C. These cultures are used to prepare suspensions by the following procedure. A suspension of each organism is prepared by adding 10 mL of sterile saline and 10 microliters of octylphenoxy polyethoxy ethanol to the agar slant of yeast or fungi. The sterile saline/octylphenoxy polyethoxy ethanol solution is then agitated with a sterile swab to suspend the microorganism grown on the slant. Each resulting suspension is diluted into sterile saline (1 part suspension to 9 parts sterile saline). Aliquots of these dilutions are placed in individual wells of Steer's Replicator and petri plates inoculated as previously described. The petri plates are incubated at 30° C. and read after 48 hours for yeast and 72 hours for fungi.
# (§5) Table II lists the bacteria, yeast and fungi used in the MIC test described above along with their respective American Type Culture Collection (ATCC) identification numbers.
# (§6) In Tables III and IV, the MIC values of the compounds described in Table I as compared to the MIC of a standard commercial preservative (with 1-(3-chloroallyl)-3,5,7-triaza-1-azoniaadamantane chloride as the active agent and referred to in Tables III and IV as "STANDARD I") are set forth for the bacteria organisms and yeast/fungi organisms which are listed in Table II.
# [2] = tested on: Fusarium oxysporum (Fo); experiment: as above; format: cell-based, Fusarium oxysporum ATCC 48112; details: 30° C., 72 hours for fungi
# Protocol: as §1, §2, §3, §4, §5, §6
# [3] = tested on: Aspergillus niger (An); experiment: as above; format: cell-based, Aspergillus niger ATCC 16404; details: 30° C., 72 hours for fungi
# Protocol: as §1, §2, §3, §4, §5, §6
# [4] = tested on: Escherichia coli (Ec); experiment: Minimum inhibitory concentration (MIC), bacteria in nutrient agar; format: cell-based, Escherichia coli ATCC 11229; details: 48 hours
# Protocol: as §1
# (§7) Nutrient agar is prepared at pH 6.8, representing a neutral medium, and at pH 8.2, representing an alkaline medium. The nutrient agars are prepared by adding 23 g of nutrient agar to one liter of deionized water. In addition, the alkaline medium is prepared by adjusting a 0.04M solution of N-[tris-(hydroxymethyl)methyl]glycine buffered deionized water with concentrated sodium hydroxide to a pH of 8.5.
# as §3
# (§8) The inoculation with bacteria is accomplished by using the following procedure. Twenty-four hour-cultures of each of the bacteria are prepared by incubating the respective bacteria in tubes containing nutrient broth for 24 hours at 30° C. in a shaker. Dilutions of each of the 24 hour-cultures are made so that nine separate suspensions (one for each of the nine test bacteria) are made, each containing 10^8 colony forming units (CFU) per mL of suspension of a particular bacteria. Aliquots of 0.3 mL of each of the bacterial suspensions are used to fill the individual wells of Steer's Replicator. For each microbial suspension, 0.3 mL was used to fill three wells (i.e., three wells of 0.3 mL each) so that for the nine different bacteria, 27 wells are filled. The Steer's Replicator is then used to inoculate both the neutral and alkaline pH nutrient agar petri plates.
# (§9) The inoculated petri plates are incubated at 30° C. for 48 hours and then read to determine if the test compound which is incorporated into the agar prevented growth of the respective bacteria.
# as §5, §6
# [5] = tested on: Enterobacter aerogenes (Ea); experiment: as above; format: cell-based, Enterobacter aerogenes ATCC 13048; details: Klebsiella aerogenes, 48 hours
# Protocol: as §1, §7, §3, §8, §9, §5, §6
# [6] = tested on: Proteus vulgaris (Pv); experiment: as above; format: cell-based, Proteus vulgaris ATCC 881; details: 48 hours
# Protocol: as §1, §7, §3, §8, §9, §5, §6
# [7] = tested on: Salmonella choleraesuis (Sc); experiment: as above; format: cell-based, Salmonella choleraesuis ATCC 10708; details: Salmonella enterica, 48 hours
# Protocol: as §1, §7, §3, §8, §9, §5, §6
# [8] = tested on: Aureobasidium pullulan (Ap); experiment: Minimum inhibitory concentration (MIC), yeast/fungi in malt yeast agar; format: cell-based, Aureobasidium pullulan ATCC 16622; details: 30° C., read after 48 hours for yeast and 72 hours for fungi
# Protocol: as §1, §2, §3, §4, §5, §6
# [9] = tested on: Pseudomonas aeruginosa (PRD-10); experiment: Minimum inhibitory concentration (MIC), bacteria in nutrient agar; format: cell-based, Pseudomonas aeruginosa ATCC 15442; details: 48 hours
# Protocol: as §1, §7, §3, §8, §9, §5, §6
# [10] = tested on: Penicillium chrysogenum (Pc); experiment: Minimum inhibitory concentration (MIC), yeast/fungi in malt yeast agar; format: cell-based, Penicillium chrysogenum ATCC 9480; details: 30° C., 72 hours for fungi
# Protocol: as §1, §2, §3, §4, §5, §6
# [11] = tested on: Saccharomyces cerevisiae (Sc); experiment: as above; format: cell-based, Saccharomyces cerevisiae ATCC 4105; details: 30° C., 48 hours for yeast
# Protocol: as §1, §2, §3, §4, §5, §6
# [12] = tested on: Candida albicans (Ca); experiment: as above; format: cell-based, Candida albicans ATCC 10231; details: 30° C., 48 hours for yeast
# Protocol: as §1, §2, §3, §4, §5, §6
# [13] = tested on: Klebsiella pneumoniae (Kp); experiment: Minimum inhibitory concentration (MIC), bacteria in nutrient agar; format: cell-based, Klebsiella pneumoniae ATCC 8308; details: 48 hours
# Protocol: as §1, §7, §3, §8, §9, §5, §6
# [14] = tested on: Staphylococcus aureus (Sa); experiment: as above; format: cell-based, Staphylococcus aureus ATCC 6538; details: 48 hours
# Protocol: as §1, §7, §3, §8, §9, §5, §6
# [15] = tested on: Bacillus subtilis (Bs); experiment: as above; format: cell-based, Bacillus subtilis ATCC 8473; details: 48 hours
# Protocol: as §1, §7, §3, §8, §9, §5, §6
# [16] = tested on: Pseudomonas aeruginosa (Pa); experiment: as above; format: cell-based, Pseudomonas aeruginosa ATCC 10145; details: 48 hours
# Protocol: as §1, §7, §3, §8, §9, §5, §6
Structure (SMILES),MIC [1] [µg/mL],MIC [2] [µg/mL],MIC [3] [µg/mL],"MIC ([4]; nutrient agar pH 6.8, 30° C.) [µg/mL]","MIC ([4]; nutrient agar pH 8.2, 30° C.) [µg/mL]","MIC ([5]; nutrient agar pH 6.8, 30° C.) [µg/mL]","MIC ([5]; nutrient agar pH 8.2, 30° C.) [µg/mL]","MIC ([6]; nutrient agar pH 6.8, 30° C.) [µg/mL]","MIC ([6]; nutrient agar pH 8.2, 30° C.) [µg/mL]","MIC ([7]; nutrient agar pH 6.8, 30° C.) [µg/mL]","MIC ([7]; nutrient agar pH 8.2, 30° C.) [µg/mL]",MIC [8] [µg/mL],"MIC ([9]; nutrient agar pH 6.8, 30° C.) [µg/mL]","MIC ([9]; nutrient agar pH 8.2, 30° C.) [µg/mL]",MIC [10] [µg/mL],MIC [11] [µg/mL],MIC [12] [µg/mL],"MIC ([13]; nutrient agar pH 6.8, 30° C.) [µg/mL]","MIC ([13]; nutrient agar pH 8.2, 30° C.) [µg/mL]","MIC ([14]; nutrient agar pH 6.8, 30° C.) [µg/mL]",further results
"N#CSCSc1nnnn1-c1ccc(F)cc1 [V, 1-(4-Fluorophenyl)-5-thiomethylthiocyanato-1H-tetrazole]",25,5,5,100,500,250,500,50,250,100,250,2.5,50,100,2.5,5,25,100,250,25,"MIC ([14]; nutrient agar pH 8.2, 30° C.): 50 µg/mL; MIC ([15]; nutrient agar pH 6.8, 30° C.): < 10 µg/mL; MIC ([15]; nutrient agar pH 8.2, 30° C.): 50 µg/mL"
"N#CSCSc1nnnn1-c1ccc([N+](=O)[O-])cc1 [XI, 1-(4-Nitrophenyl)-5-thiomethylthiocyanato-1H-tetrazole]",25,25,5,> 100,> 100,> 100,> 100,< 100,> 100,> 100,> 100,10,> 100,> 100,< 2.5,10,100,< 100,> 100,100,"MIC ([16]; nutrient agar pH 6.8, 30° C.): > 100 µg/mL; MIC ([16]; nutrient agar pH 8.2, 30° C.): > 100 µg/mL; MIC ([14]; nutrient agar pH 8.2, 30° C.): 50 µg/mL; MIC ([15]; nutrient agar pH 6.8, 30° C.): > 100 µg/mL; MIC ([15]; nutrient agar pH 8.2, 30° C.): > 100 µg/mL"
